Data published in patent US9920088B2, “Triterpene derivative and its anti-influenza use” (Peking University, priority 2012, dated 2018).
Like-named read-outs stand apart in the source and are kept apart here.

What was measured:
[1] = system: A/LiaoNing-ZhenXing/1109/2010(H1N1); assay: CPE reduction assay, LN/1109 (H1N1); type: cell-based; details: Influenza A virus
[2] = system: A/HuNan-ZhuHui/1222/2010 (H3N2); assay: CPE reduction assay, HN/1222 (H3N2); type: cell-based; details: Influenza A virus

Row | SMILES | EC50 ([1]; read-out: EC50) | EC50 ([2]; read-out: EC50) | EC50 [1] | EC50 [2]
1 | NC12CC3CC(CC(C3)C1)C2 [Amantadine, amantadine, reference compound] | 0.44 ± 0.14 µM | > 200 µM | – | –
2 | CC1(C)CC[C@]2(C(=O)O[C@H]3OC(CO)[C@@H](O)C(O)C3O)C(O)C[C@]3(C)C(=CC[C@@H]4[C@@]5(C)CC[C@H](O)C(C)(C)[C@@H]5CC[C@]43C)[C@@H]2C1 (stereo partly drawn) [Compound Q9, 3β,16α-dihydroxy-olean-12-en-28-oic acid-28-O-(β-D-galactoside)] | 17.8 ± 12.6 µM | 25.6 ± 9.14 µM | – | –
3 | CC1(C)CC[C@@]2(C(=O)N[C@H]3OC(CO)[C@@H](O)C(O)C3O)C(C1)C1=CCC3[C@@]4(C)CC[C@H](O)C(C)(C)C4CC[C@@]3(C)[C@]1(C)C[C@H]2O (stereo partly drawn) [Compound Y2, 3β,16α-dihydroxy-olean-12-en-28-oic acid-28-N-(β-D-galactoside)] | > 22.2 µM | > 22.2 µM | – | –
4 | CC(=O)OCC1O[C@H](NC(=O)[C@]23CCC(C)(C)CC2C2=CCC4[C@@]5(C)CC[C@H](O)C(C)(C)C5CC[C@@]4(C)[C@]2(C)CC3)C(OC(C)=O)C(OC(C)=O)[C@@H]1OC(C)=O (stereo partly drawn) [Compound Y5, 3β-hydroxy-olean-12-en-28-oic acid-28-N-(2,3,4,6-tetra-O-acetyl-β-D-galactoside)] | 6.58 ± 1.17 µM | 3.18 ± 0.08 µM | – | –
5 | CCOC(=O)C1=C[C@@H](OC(CC)CC)[C@H](NC(C)=O)[C@@H](N)C1 [OSV-P, oseltamivir phosphate, reference compound] | > 200 µM | 8.75 ± 4.41 µM | – | –
6 | NC(=O)c1ncn([C@@H]2O[C@H](CO)[C@@H](O)[C@H]2O)n1 [RBV, ribavirin, reference compound] | – | – | 5.75 ± 0.35 µM | 3.56 ± 0.24 µM
